According to ChEMBL document CHEMBL1157827, “The synthesis and biological evaluation of quinolyl-piperazinyl piperidines as potent serotonin 5-HT1A antagonists” (J Med Chem, 2010):
Activity calls are given as the source filed them. No cut-off for these calls is given here.

Tests used:
[1] = test system: Rattus norvegicus; assay: Cognitive enhancing effect in po dosed Long-Evans rat assessed as minimal effective dose for reversal of scopolamine-induced memory deficit administered 30 mins prior to MK801 challenge measured after 1 hr by novel object recognition test; type: functional; conditions: read-out: MED
[2] = test system: Rattus norvegicus; assay: Effect on obsessive compulsive behavior in Sprague-Dawley rat assessed as inhibition of polydipsia stimulated by food intake of a schedule of every 2 minutes for 2 hrs at 10 mg/kg, po after 30 mins; type: functional, organism-based; parameters: dose 10 mg/kg
[3] = test system: Rattus norvegicus; assay: Induction of sexual dysfunction in Sprague-Dawley rat assessed as decrease in noncontact penile erection at 10 mg/kg, ip QD for 14 days measured after day 14; type: organism-based; parameters: dose 10 mg/kg, route intraperitoneal; scale not given: the % may be the effect or the level left; conditions: in vivo, 336 h
[4] = test system: Rattus norvegicus; assay: Enhancement of fluoxetine-induced inhibition of olfactory bulbectomy-mediated hyperlocomotor activity in Sprague-Dawley rat at 10 mg/kg, po coadministered with fluoxetine QD for 7 days measured after 14 days post-surgery; type: functional, organism-based; parameters: dose 10 mg/kg
[5] = test system: Rattus norvegicus; assay: Inhibition of 8-OH-DPAT-induced decrease in extracellular serotonin level Sprague-Dawley rat cortex at 10 mg/kg, po administered 30 mins before 8-OH-DPAT challenge; type: functional, organism-based; parameters: dose 10 mg/kg
[6] = test system: Rattus norvegicus; assay: Effect on obsessive compulsive behavior in Sprague-Dawley rat assessed as inhibition of polydipsia stimulated by food intake of a schedule of every 2 minutes for 2 hrs at 5.6 mg/kg, ip after 30 mins; type: functional, organism-based; parameters: dose 5.6 mg/kg
[7] = test system: Rattus norvegicus; assay: Cognitive enhancing effect in po dosed Long-Evans rat assessed as minimal effective dose for reversal of 48 hrs delay-induced cognitive deficit measured after 1 hr by novel object recognition test; type: functional; conditions: read-out: MED
[8] = test system: Rattus norvegicus; assay: Cognitive enhancing effect in po dosed Long-Evans rat assessed as minimal effective dose for reversal of MK-801-induced memory deficit administered 30 mins prior to MK801 challenge measured after 1 hr by novel object recognition test; type: functional; conditions: read-out: MED
[9] = test system: Rattus norvegicus; assay: Effect on obsessive compulsive behavior in po dosed Sprague-Dawley rat assessed as enhancement of fluoxetine-induced inhibition of polydipsia stimulated by food intake of a schedule of every 2 minutes for 2 hrs administered 30 mins before fluoxetine challenge measured after 30 mins; type: functional, organism-based
[10] = test system: Mus musculus; assay: Cognitive enhancing effect in po dosed transgenic 2576 mouse overexpressing human APP K670N/M671L double mutant assessed as minimal effective dose for enhancement of contextual memory measured after 1 hr by contextual fear conditioning assay; type: functional; conditions: read-out: MED
[11] = Tmax in Sprague-Dawley rat at 3 mg/kg, po administered as single dose by LC/MS/MS analysis; type: ADME, organism-based; parameters: dose 3 mg/kg, route oral; conditions: in vivo
[12] = test system: Rattus norvegicus; assay: In vivo receptor occupancy of 5HT1A receptor Long-Evans rat […] hippocampus at 0.1 to 10 mg/kg, po by [3H]WAY100635 displacement assay; type: functional; conditions: dose mg/kg 0.1-10
[13] = Volume of distribution at steady state in Sprague-Dawley rat at 1 mg/kg, iv administered as single dose by LC/MS/MS analysis; type: ADME, organism-based; parameters: dose 1 mg/kg, route intravenous; conditions: in vivo, read-out: Vdss
[14] = Cmax in Sprague-Dawley rat at 3 mg/kg, po administered as single dose by LC/MS/MS analysis; type: ADME, organism-based; parameters: dose 3 mg/kg, route oral; conditions: in vivo
[15] = biological target: T1, 5-hydroxytryptamine receptor 1A (Homo sapiens, UniProt P08908); conditions: cho
T1 sequence (P08908 whole entry): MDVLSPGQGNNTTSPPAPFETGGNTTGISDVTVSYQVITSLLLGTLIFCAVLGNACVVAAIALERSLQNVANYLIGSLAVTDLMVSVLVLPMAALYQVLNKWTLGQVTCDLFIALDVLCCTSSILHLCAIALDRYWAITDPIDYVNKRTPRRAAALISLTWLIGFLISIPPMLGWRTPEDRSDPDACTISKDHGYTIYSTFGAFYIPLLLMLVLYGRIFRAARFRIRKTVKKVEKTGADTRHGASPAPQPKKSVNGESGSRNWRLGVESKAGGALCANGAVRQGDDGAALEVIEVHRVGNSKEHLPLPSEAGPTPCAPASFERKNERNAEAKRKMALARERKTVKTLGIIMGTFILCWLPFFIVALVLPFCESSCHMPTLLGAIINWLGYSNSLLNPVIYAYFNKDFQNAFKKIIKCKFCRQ
Description: Displacement of [3H]8-OH-DPAT from human 5HT1A receptor expressed in CHO cells

[16] = test system: Rattus norvegicus; assay: Increase in fluoxetine-induced increase in serotonin level in Sprague-Dawley rat frontal cortex at 10 mg/kg, po administered 30 mins before fluoxetine challenge measured after 20 mins by microdialysis assay relative to basal level; type: functional
[17] = test system: Rattus norvegicus; assay: Cognitive enhancing effect in Long-Evans rat assessed as increase in dwell time within trigger zone during acquisition training at 10 mg/kg, po by atlantis water maze test; type: functional, organism-based; parameters: dose 10 mg/kg
[18] = test system: Rattus norvegicus; assay: Effect of noncontact penile erection in Sprague-Dawley rat at 10 mg/kg, po; type: functional, organism-based; parameters: dose 10 mg/kg
[19] = test system: Rattus norvegicus; assay: Oral bioavailability in Sprague-Dawley rat at 3 mg/kg administered as single dose by LC/MS/MS analysis; type: ADME, organism-based; conditions: in vivo
[20] = test system: Rattus norvegicus; assay: Cognitive enhancing effect in Long-Evans rat assessed as decrease in mean escape latency at 3 to 10 mg/kg, po by atlantis water maze test; type: functional, organism-based
[21] = test system: Rattus norvegicus; assay: Inhibition of fluoxetine-induced decrease in noncontact penile erection in Sprague-Dawley rat at 10 mg/kg, po coadministered with fluoxetine QD for 14 days measured after day 14; type: functional, organism-based; parameters: dose 10 mg/kg
[22] = test system: Rattus norvegicus; assay: Cognitive enhancing effect in po dosed Long-Evans rat assessed as reversal of 48 hrs delay-induced cognitive deficit at 0.1 mg/kg, po measured after 1 hr by novel object recognition test in presence of 0.5 mg/kg acetylcholinesterase inhibitor donepazil; type: functional, organism-based
[23] = test system: Rattus norvegicus; assay: Effect of noncontact penile erection in Sprague-Dawley rat at 10 mg/kg, po QD for 14 days measured after day 14; type: functional, organism-based; parameters: dose 10 mg/kg
[24] = test system: Rattus norvegicus; assay: In vivo receptor occupancy of 5HT1A receptor Long-Evans rat frontal cortex at 0.1 to 10 mg/kg, po by [3H]WAY100635 displacement assay; type: functional; conditions: dose mg/kg 0.1-10
[25] = test system: Rattus norvegicus; assay: Cognitive enhancing effect in Long-Evans rat assessed as increase in dwell time within trigger zone during acquisition training at 3 mg/kg, po by atlantis water maze test; type: functional, organism-based; parameters: dose 3 mg/kg
[26] = test system: Rattus norvegicus; assay: Inhibition of fluoxetine-induced decrease in noncontact penile erection in Sprague-Dawley rat at 10 mg/kg, po coadministered with fluoxetine; type: functional, organism-based; parameters: dose 10 mg/kg
[27] = test system: Rattus norvegicus; assay: Increase in acetylcholine level in Sprague-Dawley rat dorsal hippocampus at 10 mg/kg, po after 40 to 200 mins microdialysis assay; type: functional, organism-based; parameters: dose 10 mg/kg
[28] = Half life in Sprague-Dawley rat at 3 mg/kg, po administered as single dose by LC/MS/MS analysis; type: ADME, organism-based; parameters: dose 3 mg/kg, route oral; conditions: in vivo
[29] = test system: Rattus norvegicus; assay: AUC in Sprague-Dawley rat at 3 mg/kg, po administered as single dose by LC/MS/MS analysis; type: ADME, organism-based, Plasma; parameters: dose 3 mg/kg, route oral; conditions: in vivo
[30] = in vitro; conditions: human, liver microsomes
Description: Half life in human liver microsomes at 1 uM after 20 mins

[31] = test system: Rattus norvegicus; assay: Effect on serotonin release in Sprague-Dawley rat cortex at 10 mg/kg, po after 40 mins microdialysis assay; type: functional, organism-based; parameters: dose 10 mg/kg
[32] = Ratio of drug level in brain to plasma in Sprague-Dawley rat at 3 mg/kg, po administered as single dose; type: ADME, organism-based; parameters: dose 3 mg/kg, route oral; conditions: read-out: BPR
[33] = test system: Rattus norvegicus; assay: Cognitive enhancing effect in Long-Evans rat assessed as effect on swim speed during acquisition training at 3 to 10 mg/kg, po by atlantis water maze test; type: functional, organism-based
[34] = biological target: T1, 5-hydroxytryptamine receptor 1A
[35] = test system: Rattus norvegicus; assay: Enhancement of fluoxetine-induced inhibition of polydipsia stimulated by food intake of a schedule of every 2 minutes for 2 hrs in Sprague-Dawley rat assessed as minimal effective dose administered 30 mins before fluoxetine challenge measured after 30 mins; type: functional; conditions: read-out: MED
[36] = test system: Rattus norvegicus; assay: Antidepressant activity in Sprague-Dawley rat assessed as inhibition of olfactory bulbectomy-induced hyperlocomotor activity at 5.6 mg/kg, ip QD fro 7 days measured after 14 days post-surgery; type: functional, organism-based; parameters: dose 5.6 mg/kg
[37] = in vitro; conditions: rat, liver microsomes
Description: Half life in rat liver microsomes at 1 uM after 20 mins

COc1cc(N2CCN(C3CCN(c4ccc(F)c5cccnc45)CC3)CC2)c2ncccc2c1
minimal effective dose [1]: 0.3 mg/kg
Activity [2]: inactive
Activity [3]: 54%
Activity [4]: Active
Activity [5]: Active
Activity [6]: inactive
minimal effective dose [7]: 0.3 mg/kg
minimal effective dose [8]: 1 mg/kg
Activity [9]: Dose-dependent effect
minimal effective dose [10]: 0.3 mg/kg
Tmax [11]: 48 min
Activity [12]: 20%
Vd [13]: 2.6 L/kg
Cmax [14]: 247 ng/mL
Ki [15]: 0.4 nM
Activity [16]: 120%
Activity [17]: Active
Activity [18]: inactive
F [19]: 33%
Activity [20]: Active
Activity [21]: Active
Activity [22]: Active
Activity [23]: inactive
Activity [24]: 20%
Activity [25]: inactive
Activity [26]: Active
Activity [27]: Active
half-life [28]: 66 min
AUC [29]: 472 ng·h/mL
half-life at 20 min, 1 µM [30]: 6 min
Activity [31]: inactive
Kp [32]: 1.3
Activity [33]: inactive
IC50 [34]: 2.7 nM
minimal effective dose [35]: 3 mg/kg
Activity [36]: inactive
half-life at 20 min, 1 µM [37]: 2 min
